From ChEMBL document CHEMBL1139487, “Discovery of corticotropin releasing factor 2 receptor selective sauvagine analogues for treatment of skeletal muscle atrophy” (J Med Chem, 2005)

Key:
[1] = target: T1, Corticotropin-releasing factor receptor 1 (Mus musculus) (UniProt P35347); experiment: In vitro agonistic activity against mouse corticotropin releasing factor 1 receptor; assay type: functional
T1 sequence (whole entry): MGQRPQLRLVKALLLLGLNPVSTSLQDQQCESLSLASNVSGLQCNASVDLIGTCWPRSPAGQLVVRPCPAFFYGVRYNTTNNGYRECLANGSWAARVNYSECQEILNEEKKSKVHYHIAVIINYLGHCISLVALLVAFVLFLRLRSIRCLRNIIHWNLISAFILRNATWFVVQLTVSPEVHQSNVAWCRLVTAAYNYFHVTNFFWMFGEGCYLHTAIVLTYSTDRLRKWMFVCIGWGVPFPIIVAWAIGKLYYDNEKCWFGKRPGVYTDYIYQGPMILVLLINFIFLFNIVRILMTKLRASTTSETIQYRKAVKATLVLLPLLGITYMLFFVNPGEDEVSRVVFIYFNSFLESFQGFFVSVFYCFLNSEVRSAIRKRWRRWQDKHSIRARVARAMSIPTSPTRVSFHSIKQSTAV

[2] = target: Corticotropin-releasing factor receptor 2 (Mus musculus) (UniProt Q60748); experiment: In vitro agonistic activity against mouse corticotropin releasing factor 2 receptor; assay type: functional
Mus musculus = organism: Mus musculus; experiment: Selectivity ratio of EC50s for mouse corticotropin releasing factor receptors 1 and 2

Chain of Corticotropin-releasing factor receptor 2 (Mus musculus) (Q60748 whole entry): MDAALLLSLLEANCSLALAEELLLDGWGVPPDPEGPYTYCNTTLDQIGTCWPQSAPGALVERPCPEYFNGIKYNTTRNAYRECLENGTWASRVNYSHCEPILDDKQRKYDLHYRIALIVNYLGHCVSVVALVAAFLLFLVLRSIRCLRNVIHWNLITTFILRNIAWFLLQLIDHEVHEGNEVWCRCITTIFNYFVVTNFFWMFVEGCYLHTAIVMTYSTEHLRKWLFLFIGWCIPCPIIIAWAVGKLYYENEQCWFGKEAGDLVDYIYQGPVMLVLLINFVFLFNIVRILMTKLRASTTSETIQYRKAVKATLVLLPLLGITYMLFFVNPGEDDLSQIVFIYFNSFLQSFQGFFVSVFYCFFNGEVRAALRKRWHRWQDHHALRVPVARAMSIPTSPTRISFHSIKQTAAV

Emax [1]	Emax [2]	Selectivity (Mus musculus)	Structure (SMILES)
100%	88%	65	CC[C@H](C)[C@H](NC(=O)[C@@H](NC(=O)[C@H](CC(=O)O)NC(=O)[C@H](CC(C)C)NC(=O)[C@H](CC(C)C)NC(=O)[C@H](CC(C)C)NC(=O)[C@H](CCCN=C(N)N)NC(=O)[C@H](CC(N)=O)NC(=O)[C@H](CC(N)=O)NC(=O)[C@H](C)NC(=O)[C@H](C)NC(=O)[C@H](CCC(N)=O)NC(=O)[C@H](CCC(N)=O)NC(=O)[C@H](CCCCN)NC(=O)[C@H](CCC(=O)O)NC(=O)[C@H](CCCCN)NC(=O)[C@H](CCC(=O)O)NC(=O)[C@H](CCC(N)=O)NC(=O)[C@H](CCCCN)NC(=O)[C@H](CCC(=O)O)NC(=O)[C@@H](NC(=O)[C@H](CCC(=O)O)NC(=O)[C@@H](NC(=O)[C@H](CCSC)NC(=O)[C@H](CCCCN)NC(=O)[C@H](CCCN=C(N)N)NC(=O)[C@H](CC(C)C)NC(=O)[C@H](CC(C)C)NC(=O)[C@H](CCC(N)=O)NC(=O)[C@H](CC(C)C)NC(=O)[C@@H]1CCCN1C(=O)[C@H](CC(C)C)NC(=O)[C@H](CC(=O)O)NC(=O)[C@@H](NC(=O)[C@H](CO)NC(=O)[C@@H](NC(=O)[C@@H]1CCCN1C(=O)[C@@H]1CCCN1C(=O)CNC(=O)[C@@H]1CCC(=O)N1)[C@@H](C)CC)[C@@H](C)CC)[C@@H](C)CC)[C@@H](C)CC)[C@@H](C)O)C(=O)O
96%	100%	22	CC[C@H](C)[C@H](NC(=O)[C@@H](NC(=O)[C@H](CC(=O)O)NC(=O)[C@H](CC(C)C)NC(=O)[C@H](CC(C)C)NC(=O)[C@H](CC(C)C)NC(=O)[C@H](CCCN=C(N)N)NC(=O)[C@H](CC(N)=O)NC(=O)[C@H](CC(N)=O)NC(=O)[C@H](C)NC(=O)[C@H](C)NC(=O)[C@H](CCC(N)=O)NC(=O)[C@H](CCC(N)=O)NC(=O)[C@H](CCCCN)NC(=O)[C@H](CCC(=O)O)NC(=O)[C@H](CCCCN)NC(=O)[C@H](CCC(=O)O)NC(=O)[C@H](CCC(N)=O)NC(=O)[C@H](CCCCN)NC(=O)[C@H](CCC(=O)O)NC(=O)[C@@H](NC(=O)[C@H](CCC(=O)O)NC(=O)[C@@H](NC(=O)[C@H](CCSC)NC(=O)[C@H](CCCCN)NC(=O)[C@H](CCCN=C(N)N)NC(=O)[C@H](CC(C)C)NC(=O)[C@H](CC(C)C)NC(=O)[C@H](CC(C)C)NC(=O)[C@H](CC(C)C)NC(=O)[C@@H]1CCCN1C(=O)[C@H](CC(C)C)NC(=O)[C@H](CC(=O)O)NC(=O)[C@@H](NC(=O)[C@H](CO)NC(=O)[C@@H](NC(=O)[C@@H]1CCCN1C(=O)[C@@H]1CCCN1C(=O)CNC(=O)[C@@H]1CCC(=O)N1)[C@@H](C)CC)[C@@H](C)CC)[C@@H](C)CC)[C@@H](C)CC)[C@@H](C)O)C(=O)O
95%	94%	48	CC[C@H](C)[C@H](NC(=O)[C@@H](NC(=O)[C@H](CC(=O)O)NC(=O)[C@H](CC(C)C)NC(=O)[C@H](CC(C)C)NC(=O)[C@H](CC(C)C)NC(=O)[C@H](CCCN=C(N)N)NC(=O)[C@H](CC(N)=O)NC(=O)[C@H](CC(N)=O)NC(=O)[C@H](C)NC(=O)[C@H](C)NC(=O)[C@H](CCC(N)=O)NC(=O)[C@H](CCC(N)=O)NC(=O)[C@H](CCCCN)NC(=O)[C@H](CCC(=O)O)NC(=O)[C@H](CCCCN)NC(=O)[C@H](CCC(=O)O)NC(=O)[C@H](CCC(N)=O)NC(=O)[C@H](CCCCN)NC(=O)[C@H](CCC(=O)O)NC(=O)[C@@H](NC(=O)[C@H](CCC(=O)O)NC(=O)[C@@H](NC(=O)[C@H](CCSC)NC(=O)[C@H](CCCCN)NC(=O)[C@H](CCCN=C(N)N)NC(=O)[C@H](CC(C)C)NC(=O)[C@H](CC(C)C)NC(=O)[C@@H](NC(=O)[C@H](CC(C)C)NC(=O)[C@@H]1CCCN1C(=O)[C@H](CC(C)C)NC(=O)[C@H](CC(=O)O)NC(=O)[C@@H](NC(=O)[C@H](CO)NC(=O)[C@@H](NC(=O)[C@@H]1CCCN1C(=O)[C@@H]1CCCN1C(=O)CNC(=O)[C@@H]1CCC(=O)N1)[C@@H](C)CC)[C@@H](C)CC)C(C)C)[C@@H](C)CC)[C@@H](C)CC)[C@@H](C)O)C(=O)O
81%	98%	16	CC[C@H](C)[C@H](NC(=O)[C@@H](NC(=O)[C@H](CC(=O)O)NC(=O)[C@H](CC(C)C)NC(=O)[C@H](CC(C)C)NC(=O)[C@H](CC(C)C)NC(=O)[C@H](CCCN=C(N)N)NC(=O)[C@H](CC(N)=O)NC(=O)[C@H](CC(N)=O)NC(=O)[C@H](C)NC(=O)[C@H](C)NC(=O)[C@H](CCC(N)=O)NC(=O)[C@H](CCC(N)=O)NC(=O)[C@H](CCCCN)NC(=O)[C@H](CCC(=O)O)NC(=O)[C@H](CCCCN)NC(=O)[C@H](CCC(=O)O)NC(=O)[C@H](CCC(N)=O)NC(=O)[C@H](CCCCN)NC(=O)[C@H](CCC(=O)O)NC(=O)[C@@H](NC(=O)[C@H](CCC(=O)O)NC(=O)[C@@H](NC(=O)[C@H](CCSC)NC(=O)[C@H](CCCCN)NC(=O)[C@H](CCCN=C(N)N)NC(=O)[C@H](CC(C)C)NC(=O)[C@H](CC(C)C)NC(=O)[C@H](Cc1ccccc1)NC(=O)[C@H](Cc1ccc(O)cc1)NC(=O)[C@@H]1CCCN1C(=O)[C@H](CC(C)C)NC(=O)[C@H](CC(=O)O)NC(=O)[C@@H](NC(=O)[C@H](CO)NC(=O)[C@@H](NC(=O)[C@@H]1CCCN1C(=O)[C@@H]1CCCN1C(=O)CNC(=O)[C@@H]1CCC(=O)N1)[C@@H](C)CC)[C@@H](C)CC)[C@@H](C)CC)[C@@H](C)CC)[C@@H](C)O)C(=O)O
81%	91%	14	CC[C@H](C)[C@H](NC(=O)[C@@H](NC(=O)[C@H](CC(=O)O)NC(=O)[C@H](CC(C)C)NC(=O)[C@H](CC(C)C)NC(=O)[C@H](CC(C)C)NC(=O)[C@H](CCCN=C(N)N)NC(=O)[C@H](CC(N)=O)NC(=O)[C@H](CC(N)=O)NC(=O)[C@H](C)NC(=O)[C@H](C)NC(=O)[C@H](CCC(N)=O)NC(=O)[C@H](CCC(N)=O)NC(=O)[C@H](CCCCN)NC(=O)[C@H](CCC(=O)O)NC(=O)[C@H](CCCCN)NC(=O)[C@H](CCC(=O)O)NC(=O)[C@H](CCC(N)=O)NC(=O)[C@H](CCCCN)NC(=O)[C@H](CCC(=O)O)NC(=O)[C@@H](NC(=O)[C@H](CCC(=O)O)NC(=O)[C@@H](NC(=O)[C@H](CCSC)NC(=O)[C@H](CCCCN)NC(=O)[C@H](CCCN=C(N)N)NC(=O)[C@H](CC(C)C)NC(=O)[C@H](CC(C)C)NC(=O)[C@@H](NC(=O)[C@H](Cc1ccccc1)NC(=O)[C@@H]1CCCN1C(=O)[C@H](CC(C)C)NC(=O)[C@H](CC(=O)O)NC(=O)[C@@H](NC(=O)[C@H](CO)NC(=O)[C@@H](NC(=O)[C@@H]1CCCN1C(=O)[C@@H]1CCCN1C(=O)CNC(=O)[C@@H]1CCC(=O)N1)[C@@H](C)CC)[C@@H](C)CC)C(C)C)[C@@H](C)CC)[C@@H](C)CC)[C@@H](C)O)C(=O)O
50%	100%	33	CC[C@H](C)[C@H](NC(=O)[C@@H](NC(=O)[C@H](CC(=O)O)NC(=O)[C@H](CC(C)C)NC(=O)[C@H](CC(C)C)NC(=O)[C@H](CC(C)C)NC(=O)[C@H](CCCN=C(N)N)NC(=O)[C@H](CC(N)=O)NC(=O)[C@H](CC(N)=O)NC(=O)[C@H](C)NC(=O)[C@H](C)NC(=O)[C@H](CCC(N)=O)NC(=O)[C@H](CCC(N)=O)NC(=O)[C@H](CCCCN)NC(=O)[C@H](CCC(=O)O)NC(=O)[C@H](CCCCN)NC(=O)[C@H](CCC(=O)O)NC(=O)[C@H](CCC(N)=O)NC(=O)[C@H](CCCCN)NC(=O)[C@H](CCC(=O)O)NC(=O)[C@@H](NC(=O)[C@H](CCC(=O)O)NC(=O)[C@@H](NC(=O)[C@H](CCSC)NC(=O)[C@H](CCCCN)NC(=O)[C@H](CCCN=C(N)N)NC(=O)[C@H](CC(C)C)NC(=O)[C@H](CC(C)C)NC(=O)[C@H](CCC(N)=O)NC(=O)[C@H](CCC(N)=O)NC(=O)[C@@H]1CCCN1C(=O)[C@H](CC(C)C)NC(=O)[C@H](CC(=O)O)NC(=O)[C@@H](NC(=O)[C@H](CO)NC(=O)[C@@H](NC(=O)[C@@H]1CCCN1C(=O)[C@@H]1CCCN1C(=O)CNC(=O)[C@@H]1CCC(=O)N1)[C@@H](C)CC)[C@@H](C)CC)[C@@H](C)CC)[C@@H](C)CC)[C@@H](C)O)C(=O)O
48%	100%	> 49	CC[C@H](C)[C@H](NC(=O)[C@@H](NC(=O)[C@H](CC(=O)O)NC(=O)[C@H](CC(C)C)NC(=O)[C@H](CC(C)C)NC(=O)[C@H](CC(C)C)NC(=O)[C@H](CCCN=C(N)N)NC(=O)[C@H](CC(N)=O)NC(=O)[C@H](CC(N)=O)NC(=O)[C@H](C)NC(=O)[C@H](C)NC(=O)[C@H](CCC(N)=O)NC(=O)[C@H](CCC(N)=O)NC(=O)[C@H](CCCCN)NC(=O)[C@H](CCC(=O)O)NC(=O)[C@H](CCCCN)NC(=O)[C@H](CCC(=O)O)NC(=O)[C@H](CCC(N)=O)NC(=O)[C@H](CCCCN)NC(=O)[C@H](CCC(=O)O)NC(=O)[C@@H](NC(=O)[C@H](CCC(=O)O)NC(=O)[C@@H](NC(=O)[C@H](CCSC)NC(=O)[C@H](CCCCN)NC(=O)[C@H](CCCN=C(N)N)NC(=O)[C@H](CC(C)C)NC(=O)[C@H](CC(C)C)NC(=O)[C@H](CC(C)C)NC(=O)[C@@H](NC(=O)[C@@H]1CCCN1C(=O)[C@H](CC(C)C)NC(=O)[C@H](CC(=O)O)NC(=O)[C@@H](NC(=O)[C@H](CO)NC(=O)[C@@H](NC(=O)[C@@H]1CCCN1C(=O)[C@@H]1CCCN1C(=O)CNC(=O)[C@@H]1CCC(=O)N1)[C@@H](C)CC)[C@@H](C)CC)[C@@H](C)O)[C@@H](C)CC)[C@@H](C)CC)[C@@H](C)O)C(=O)O
